System: C. elegans
Settings: Table S2, C. elegans SS assay, 110 μM, averages of 4 data points

| Molecule | Percentage of motility inhibition 0 h [%] | Percentage of motility inhibition 24 h [%] |
| --- | --- | --- |
| CC(=O)O[C@@H]1CC[C@@]2(C)[C@@H](CC[C@]3(C)[C@@H]2[C@H](O)C=C2[C@@H]4[C@@H](C)[C@H](C)CC[C@]4(C)CC[C@]23C)[C@@]1(C)C(=O)O | 24 | 23 |
| C=C/C(C)=C/C=C/C(C)=C/C=C1/C(C)=CCCC1(C)C [all-trans-Anhydro Retinol] | 61 | 58 |
| COC(=O)C1=COC2OC3CC1C2C(C)O3 (stereo not drawn) [Sarracenin] | 11 | 27 |
| Bavachinin | 0 | 2 |
| COc1cc(/C=C/C(=O)NCC(O)c2ccc(O)cc2)ccc1O (stereo not drawn) [N‐Feruloyloctopamine] | 14 | 0 |
| CC(C)(CO)[C@@H](O)C(=O)NCCC(=O)[O-].[Na+] [D-Pantothenic acid (sodium)] | 1 | 4 |
| Clc1ccc(C(Cn2ccnc2)OCc2c(Cl)cccc2Cl)c(Cl)c1.O=[N+]([O-])O (stereo not drawn) [Isoconazole (nitrate)] | 17 | 4 |
| CC(C)=C[C@@H]1CO[C@]23C[C@@]4(CO2)[C@@H](CC[C@@H]2[C@@]5(C)CC[C@H](O[C@H]6OC[C@H](O)[C@H](O[C@H]7O[C@H](COS(=O)(=O)O)[C@@H](O)[C@H](O)[C@H]7O)[C@H]6O[C@@H]6O[C@@H](CO)[C@H](O)[C@H]6O)C(C)(C)[C@@H]5CC[C@]24C)[C@H]3[C@@]1(C)O [Bacopaside I] | 19 | 0 |
| CC1=C2[C@@H](OC1=O)[C@H](O)[C@]13[C@H]4C[C@@H](C(C)(C)C)[C@]15[C@@H](OC(=O)[C@@H]5O)O[C@@]23C(=O)O4 [Ginkgolide K] | 0 | 2 |
| CCC(C)(C)c1ccc(CC(C)CN2C[C@@H](C)O[C@@H](C)C2)cc1.Cl (stereo partly drawn) [Amorolfine (hydrochloride)] | 20 | 9 |
| COc1ccc([C@@H]2CC(=O)c3c(O)cc(O)cc3O2)cc1O (racemic) [(Rac)‐Hesperetin] | 0 | 0 |
| CC(C)Nc1cccnc1N1CCN(C(=O)c2cc3cc(NS(C)(=O)=O)ccc3[nH]2)CC1.CS(=O)(=O)O [Delavirdine (mesylate)] | 22 | 16 |
| C=C1CCC2C(C=C(C)C(=O)C3(OC(C)=O)CC(C)C(OC(=O)c4ccccc4)C3C1OC(C)=O)C2(C)C (stereo not drawn) [5,15-Diacetyl-3-benzoyllathyrol] | 30 | 32 |
| COc1cc(O)c2c(=O)cc(-c3ccc(O)c(O)c3)oc2c1 [Hydroxygenkwanin] | 11 | 13 |
| C[C@@H]1O[C@@H](O[C@H]2[C@H](Oc3c(-c4ccc(O)cc4)oc4cc(O)cc(O)c4c3=O)O[C@H](CO)[C@@H](O)[C@@H]2O)[C@H](O)[C@H](O)[C@H]1O [Kaempferol 3‐neohesperidoside] | 17 | 10 |
| COc1ccc2c(c1OC)C(OC)N(C)c1c-2ccc2cc3c(cc12)OCO3 (stereo not drawn) [Angoline] | 0 | 0 |
| Cl.NCCS [Cysteamine (hydrochloride)] | 23 | 6 |
| CC1(C)[C@H]2O[C@H]2[C@H]2[C@](C)(O)[C@@H]3CC[C@@H]4[C@@H](O)[C@@]3(C[C@@H](O)[C@@]21O)C[C@@]4(C)O [Rhodojaponin III] | 5 | 2 |
| C=C(C)[C@@H]1CCC2=CCC[C@@H](C)[C@]2(C)C1 [Valencene] | 3 | 4 |
| Amarogentin | 2 | 8 |
| Cn1cc[n+](C[C@@]2(C)[C@H](C(=O)[O-])N3C(=O)C[C@H]3S2(=O)=O)n1 [AAI101] | 27 | 0 |
| CO[C@@]1(NC(=O)CSCC#N)C(=O)N2C(C(=O)[O-])=C(CSc3nnnn3C)CS[C@@H]21.[Na+] [Cefmetazole (sodium)] | 7 | 25 |
| Cc1ccc(CCCO)c(NCc2ccc3nc(NCCCN4CCOCC4)n(Cc4nc(C)ccc4O)c3c2)c1 [TMC353121] | 25 | 4 |
| COc1c(O[C@@H]2O[C@H](C(=O)O)[C@@H](O)[C@H](O)[C@H]2O)cc(O)c2c(=O)cc(-c3ccccc3)oc12 [Wogonoside] | 6 | 2 |

| Molecule | Percentage of motility inhibition 0 h [%] | Percentage of motility inhibition 24 h [%] |
| --- | --- | --- |
| [N-]=[N+]=NCc1cccc(/C(O)=C/C(=O)C(=O)O)c1 [HIV‐1 integrase inhibitor] | 22 | 10 |
| CCCCCC(=O)Oc1c(Br)cc(Br)cc1Br [2,4,6‐Tribromophenyl caproate] | 48 | 57 |
| CO/N=C(\C(=O)N[C@@H]1C(=O)N2C(C(=O)[O-])=C(COC(C)=O)CS[C@H]12)c1csc(N)n1.[Na+] [Cefotaxime (sodium salt)] | 30 | 34 |
| O=c1c(O[C@@H]2O[C@H](CO[C@@H]3O[C@H](CO)[C@@H](O)[C@H](O)[C@H]3O)[C@@H](O)[C@H](O)[C@H]2O)c(-c2ccc(O)c(O)c2)oc2cc(O)cc(O)c12 [Quercetin 3‐gentiobioside] | 42 | 0 |
| Theaflavin 3,3'‐digallate | 0 | 2 |
| Nc1ccc(S(=O)(=O)Nc2cncc(Cl)n2)cc1 [Sulfaclozine] | 3 | 1 |
| COc1ccc2cc1Oc1ccc(cc1)C[C@H]1c3cc(c(OC)cc3CCN1C)Oc1c(O)c(OC)cc3c1[C@H](C2)N(C)CC3 [(R)‐Fangchinoline] | 44 | 1 |
| CO/N=C(\C(=O)N[C@@H]1C(=O)N2C(C(=O)[O-])=C(COC(N)=O)CS[C@H]12)c1ccco1.[Na+] [Cefuroxime (sodium)] | 19 | 17 |
| C[C@H](CC[C@@H](O[C@@H]1O[C@H](CO)[C@@H](O)[C@H](O)[C@H]1O[C@@H]1O[C@H](CO)[C@@H](O)[C@H](O)[C@H]1O)C(C)(C)O)[C@H]1CC[C@@]2(C)[C@H]3CC=C4[C@@H](CC[C@H](O[C@@H]5O[C@H](CO[C@@H]6O[C@H](CO)[C@@H](O)[C@H](O)[C@H]6O)[C@@H](O)[C@H](O)[C@H]5O)C4(C)C)[C@]3(C)[C@H](O)C[C@]12C [Mogroside IV-E] | 4 | 6 |
| CC(=O)[C@H]1CC[C@H]2[C@@H]3CC[C@H]4CC(=O)CC[C@]4(C)[C@H]3CC[C@]12C [5a‐Pregnane‐3,20‐dione] | 2 | 17 |
| CC(C)CN(C[C@@H](O)[C@H](Cc1ccccc1)NC(=O)O[C@H]1CO[C@H]2OCC[C@H]21)S(=O)(=O)c1ccc(N)cc1.CCO [Darunavir (Ethanolate)] | 14 | 10 |
| CC1=CC[C@@]23C[C@@H]1C(C)(C)[C@@H]2CC[C@H]3C [(-)-Cedrene] | 0 | 17 |
| C[C@H](CCC(=O)NCC(=O)O)[C@H]1CC[C@H]2[C@@H]3CC[C@@H]4C[C@H](OS(=O)(=O)O)CC[C@]4(C)[C@H]3CC[C@]12C [Glycolithocholic acid 3-sulfate] | 13 | 33 |
| Pseudoginsenoside F11 | 0 | 22 |
| CC(=O)O[C@H]1CC/C(C)=C/CC/C(C)=C/C[C@]2(C(C)C)CC[C@@]1(C)O2 [Incensole Acetate] | 9 | 17 |
| COc1cc(OC)c2c(=O)cc(-c3ccc(O)c(O)c3)oc2c1 [5,7‐Dimethoxyluteolin] | 24 | 13 |
| Ingenol-5,20-acetonide | 4 | 6 |
| COc1ccc([C@@H]2CC(=O)c3c(O)cc(O[C@@H]4O[C@H](CO)[C@@H](O)[C@H](O)[C@H]4O)cc3O2)cc1O [Hesperetin 7‐O‐glucoside] | 16 | 14 |
| c1cncc([C@@H]2CCCCN2)c1 (racemic) [(±) Anabasine] | 3 | 0 |
| [Cl-].c1c2c(cc3c1OCO3)-c1cc3cc4c(cc3c[n+]1CC2)OCO4 [Pseudocoptisine (chloride)] | 0 | 14 |
| C=C1C2CC3(C1O)C1CC4C5(C)CCC(O)C4(C1N(CC)C5)C3CC2O (stereo not drawn) [12‐Epinapelline] | 0 | 9 |
| C=C1CC[C@]2(C)CC[C@]3(C)[C@H](CC[C@@H]4[C@@]5(C)CC[C@H](O)C(C)(C)[C@@H]5CC[C@]43C)[C@H]2[C@@H]1C [Taraxasterol] | 1 | 2 |
| COc1ccc(-c2cc(=O)c3c(OC)c(OC)c(OC)cc3o2)cc1 [Scutellarein tetramethyl ether] | 0 | 0 |
| COc1ccc(-c2oc3c(CC=C(C)C)c(O)cc(O)c3c(=O)c2O[C@@H]2O[C@@H](C)[C@H](O)[C@@H](O)[C@H]2O)cc1 [Baohuoside I] | 0 | 0 |

— paper PMC11855827, “High-Throughput Screening of Five Compound Libraries for Anthelmintic Activity and Toxicity Leads to the Discovery of Two Flavonoid Compounds” (International Journal of Molecular Sciences, 2025)
